In general, IC50 refers to the concentration that gives 50% inhibition.

Holding throughout (format): functional, cell-based
One experiment relates to MCF7. The experiment can be described thus: Cytotoxicity against human MCF7 cells by SRB method.
The next experiment relates to HepG2. The experiment can be described thus: Cytotoxicity against human HepG2 cells by SRB method. A general note: The SRB assay estimates cell density from bound dye.
A further experiment relates to SF-268. Briefly: Cytotoxicity against human SF268 cells by SRB method.
In another experiment the test system is NCI-H460. Briefly: Cytotoxicity against human NCI-H460 cells by SRB method.

Structures are written as SMILES. Some results are limits rather than exact numbers.

`C[C@@H]1NC(=O)[C@H](Cc2c[nH]c3ccccc23)NC1=O`: the IC50 in the experiment with MCF7, in the experiment with HepG2, in the experiment with SF-268 and in the experiment on NCI-H460 was greater than 100000 nM throughout.

On to `O=C1N[C@@H](Cc2c[nH]c3ccccc23)C(=O)N[C@H]1CO`, for which the IC50 in the experiment on MCF7, in the experiment on HepG2, with SF-268 and in the experiment on NCI-H460 was greater than 100000 nM in each case.

For `C[C@H]1C(=O)N[C@@H](Cc2c[nH]c3ccccc23)C(=O)N1C`, the IC50 in the experiment on MCF7, with HepG2, in the experiment with SF-268 and in the experiment with NCI-H460 was greater than 100000 nM throughout.

Take `CN1C(=O)[C@]23SSS[C@@]1(C)C(=O)N2[C@H]1Nc2ccccc2[C@]1(c1c[nH]c2ccccc12)[C@@H]3O`: the half-maximal inhibitory concentration (IC50) in the experiment with MCF7 came to 650 nM; in the experiment with HepG2 it was 2030 nM; with SF-268, 2490 nM; in the experiment on NCI-H460 it was 17800 nM.

As for `CN1C(=O)[C@]23SS[C@@]1(C)C(=O)N2[C@H]1Nc2ccccc2[C@]1(c1c[nH]c2ccccc12)[C@@H]3O`, the concentration for half-maximal inhibition (IC50) with MCF7 amounted to 230 nM; in the experiment with HepG2 it was 530 nM; in the experiment on SF-268, 730 nM; with NCI-H460, 6570 nM.

`CN1C(=O)[C@]23SSS[C@]1(CO)C(=O)N2[C@H]1Nc2ccccc2[C@@]1(c1c[nH]c2ccccc12)[C@@H]3O`: the IC50 in the experiment with MCF7 was determined as 910 nM; with HepG2 it was 3520 nM; in the experiment with SF-268, 1040 nM; in the experiment with NCI-H460 it was 5600 nM.

As to `CS[C@]1(Cc2c[nH]c3ccccc23)NC(=O)[C@](CO)(SC)N(C)C1=O` [CHETOSEMINUDIN B], the 50% inhibitory concentration (IC50) with MCF7, in the experiment on HepG2, in the experiment on SF-268 and in the experiment on NCI-H460 was greater than 100000 nM throughout.

`CS[C@]1(CO)NC(=O)[C@](Cc2c[nH]c3ccccc23)(SC)NC1=O` [CHETOSEMINUDIN C]: the IC50 in the experiment on MCF7, in the experiment on HepG2, in the experiment with SF-268 and in the experiment on NCI-H460 was greater than 100000 nM throughout.

On to `CN1C(=O)[C@@]23C[C@@]4(c5c[nH]c6ccccc56)c5ccccc5N[C@@H]4N2C(=O)[C@]1(CO)SS3` [LUTEOALBUSIN A], for which the IC50 in the experiment with MCF7 was determined as 230 nM; in the experiment on HepG2 it was 910 nM; in the experiment on SF-268 it was 460 nM; in the experiment on NCI-H460 it was 1150 nM.

Take `CN1C(=O)[C@@]23C[C@@]4(c5c[nH]c6ccccc56)c5ccccc5N[C@@H]4N2C(=O)[C@]1(CO)SSS3` [LUTEOALBUSIN B]: the IC50 in the experiment on MCF7 amounted to 250 nM; with HepG2, 1290 nM; in the experiment on SF-268 it was 590 nM; in the experiment on NCI-H460, 1310 nM.

The record behind these values is ChEMBL document CHEMBL2203213, “Cytotoxic indole diketopiperazines from the deep sea-derived fungus Acrostalagmus luteoalbus SCSIO F457” (Bioorg Med Chem Lett, 2012).
